Test results: article PMC6668022 (Pharmaceutical research, 2019)
“And” between values parts separate entries of the source, which are not always exact repeats. Equal values may be shown once. “Also recorded” adds a separate entry of the source. Read-outs that look alike come from different tables or passages of the source.

Tests used:
EBOV [1] = assay: microbe, parasite or virus in culture; format: cell-based, Ebola virus
in vitro = details: human
HeLa cells = details: read-out: HeLa CC50; n=2
EBOV [2] = details: in vivo, 30 mg/kg/day; cited from earlier work
[3] = tested on: VP35-nucleoprotein interface; details: cited from earlier work
[4] = Zaire ebolavirus, HeLa, 24 h, read-out: EC50 Activity against EBOV, n=4
[5] = read-out: EC50 Activity against EBOV, n=4

Row | Compound | EC50 (EBOV [1]; [4]) | EC50 (EBOV [1]; [5]) | CC50 (in vitro) | further results
1 | CC(=O)OCc1ccccc1 [Benzyl acetate] | 10 µM | 10.7 ± 5 µM | > 50 µM | 
2 | C=CCc1ccc(O)c(OC)c1 [Eugenol] | 1.3 ± 0.5 µM |  | > 50 µM | 
3 | CC(C)[C@@H]1CC[C@@H](C)C[C@H]1O [L- menthol] |  |  |  | EC50 Activity against EBOV (EBOV [1]; n=4): no appreciable activity; also recorded: inactive
4 | NC(=O)c1cccnc1 [Nicotinamide, reference compound] |  |  |  | EC50 Activity against EBOV (EBOV [1]; n=4): inactive
5 | O=C(O)c1cccnc1 [Nicotinic acid, reference compound] |  |  |  | EC50 Activity against EBOV (EBOV [1]): inactive
6 | COc1ccc(C=O)cc1 [P-anisaldehyde] | 2.8 µM | 2.9 ± 0.6 µM | > 50 µM | 
7 | CC(=O)OCCc1ccccc1 [Phenethyl acetate] |  | 10 µM and 10.4 µM |  | CC50 (HeLa cells): > 50 µM
8 | CCN(CC)CCOc1ccc2c(c1)C(=O)c1cc(OCCN(CC)CC)ccc1-2 [tilorone] |  |  |  | efficacy in a mouse model of EBOV infection (EBOV [2]): 100%
9 | Cc1ccc(C(=O)c2cc(O)c(O)c([N+](=O)[O-])c2)cc1 [tolcapone] |  |  |  | IC50 [3]: 2 µM
